Consider three substances from patent US8580919B2, “Polymer conjugates of GLP-1” (Nektar Therapeutics, priority 2005, dated 2013).

Ends that are not written are not given here.

One series relates to diabetic db/db mice. In words: In-vivo study of blood-glucose lowering effects, subcutaneous dose, diabetic db/db mice (Example 8). On the set-up: species or system mouse. The settings on record: for blood glucose-lowering effect: single SC dose, FIG. 13. On the procedure:
Male diabetic mice (BKS.Cg-+Lepr db/+Lepr db/01aHsd) were purchased from Harlan Laboratories, Ltd. (Jerusalem, Israel). The 8-9 week old animals (30-40 gm) were placed in mouse cages (two animals per cage), and allowed at least 48 hours of acclimatization before the start of the study.
The study was divided into two phases: a feasibility phase and an evaluation phase.
In carrying out the feasibility phase, several groups of mice were used wherein four mice were used in each group. Data on the baseline glucose levels were gathered for each mouse for 2-3 days prior to drug dosing. This was performed to identify any outliers in the group of animals. On the day of treatment (Day 0) each animal was weighed. A time 0 day blood sample (5 to 10 μL) was collected from the tail vein. The glucose level (mg/dL) was measured using a glucose analyzer. Each animal was then dosed subcutaneously (SC) below the skin on the back. […] The animals were then allowed to return into their cages. Blood samples of 5 to 10 μL (<0.5% of 2 mL blood volume for a 35 g mouse) were removed through a needle prick/capillary tube at the following time points: −3, −2, −1, 0, 0.04, 0.16, 0.33, 1.0, 1.16 days. Each collected blood sample was tested for its glucose level. At the end of the study, the animals were humanely euthanized by carbon-dioxide asphyxiation.
In carrying out the evaluation phase, eight mice were used in each group. Data on the baseline glucose levels were gathered for each mouse three days prior to drug dosing. On the day of treatment (Day 0) each animal was weighed. A time 0 day blood sample (5 to 10 μL) was collected from the tail vein. The glucose level (mg/dL) was measured using a glucose analyzer. Each animal was then dosed subcutaneously (SC) below the skin on the back. […] The animals were then allowed to return into their cages. Blood samples of 5 to 10 μL (<0.5% of 2 mL blood volume for a 35 g mouse) were removed through a needle prick/capillary tube at the following time points: −3, −2, −1, 0, 0.04, 0.16, 0.33, 0.5, 1, 2, 3, 6 days. Each collected blood sample was for its glucose level. […]

Series [1] is described as follows: Lability of the conjugate on attempted further purification (Example 23). The class given is physicochemical. To be noted: when attempting to further purify the conjugate. From the text:
The conjugate rapidly hydrolyzed to native GLP-1 and a GLP-1 derivative resulting from an intramolecular ring closure reaction due to reaction at the carbamate carbonyl by the imidazolyl nitrogen of the N-terminal histidine of GLP-1. The modified GLP-1 thereby released is shown below. Further purification was not pursued.

For the substance “G2PEG2Fmoc20K-Lys-GLP-1: G2PEG2Fmoc20k-NHS covalently and releasably attached to a lysine position of GLP-1 (HAEGTFTSDVSSYLEGQAAKEFIAWLVKGRG; also: releasable G2PEG2Fmoc 20 kDa PEG on a lysine, position not given here; UniProt P01275 98-128, looked up)”, the blood glucose-lowering effect result in the series on diabetic db/db mice is on record as “confirmed”. Regarding “N-terminal GLP-1 conjugate prepared by reaction with an mPEG-SBC reagent: counterpart N-terminal GLP-1 conjugate prepared by reaction with an mPEG-SBC reagent”, the “stability of the conjugate” value in series [1] was “extremely labile”.

“G2PEG2Fmoc40K-Lys-GLP-1: G2PEG2Fmoc40k-NHS covalently and releasably attached to a lysine position of GLP-1 (HAEGTFTSDVSSYLEGQAAKEFIAWLVKGRG; also: releasable G2PEG2Fmoc 40 kDa PEG on a lysine, position not given here; UniProt P01275 98-128, looked up)”: the “PD effect of 40 kilodalton PEG conjugate compared to 20 kilodalton PEG conjugate” value in the series on diabetic db/db mice (SC 420 μg) was “small but extended PD effect”. In addition, in the series with diabetic db/db mice, the blood glucose-lowering effect entry was “confirmed”.
